Data as given in PubChem BioAssay AID1963963 (Molecular Pharmacology Branch, DTP, NCI, 2024).

Tested on: 958667-338-R-J2-PDC tumor spheroids viability
Assay: Anticancer human tumor 958667-338-R-J2-PDC patient-derived colon adenocarcinoma cell line growth inhibition [PI3K]
Conditions: spheroids with HUVEC and MSC; for IC50: curve of first compound; for viability, T/C: stronger effect = lower value
Outline: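 We assembled tumor spheroids that included a stromal compartment of HUVEC and MSCs, then exposed them to targeted agents alone and together with PI3K pathway inhibitors. Concentration series descended by half-log from clinically achievable Cmax levels. Viability served as the endpoint.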
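Further: spheroids exposed to compounds for seven days before readout.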

Question: With `Cn1cnc2c(F)c(Nc3ccc(Br)cc3Cl)c(C(=O)NOCCO)cc21` + COc1c(OCCCN2CCOCC2)ccc2c3n(c(=NC(=O)c4cnc(N)nc4)nc12)CCN3 as the compound, how does the IC50 (second compound 0.00316 µM) read?
Answer: 255 nM

Question: What about the IC50 (second compound 0.01 µM) of the same compound?
Answer: 134 nM

Question: What about the IC50 (second compound 0.0316 µM) of the same compound?
Answer: 38 nM

Question: What about the IC50 (second compound 0.1 µM) of the same compound?
Answer: 20.6 nM

Question: What about the IC50 (second compound 0.316 µM) of the same compound?
Answer: < 9.49 nM

Question: And the IC50 (second compound 1 µM)?
Answer: < 9.49 nM

Question: What about the viability, T/C (second compound 0.00316 µM, first compound 0.00949 µM) of the same compound?
Answer: 81.6%

Question: And the viability, T/C (second compound 0.00316 µM, first compound 0.03 µM)?
Answer: 81.9%

Question: What about the viability, T/C (second compound 0.00316 µM, first compound 0.0949 µM) of the same compound?
Answer: 75.2%

Question: What about the viability, T/C (second compound 0.00316 µM, first compound 0.3 µM) of the same compound?
Answer: 44.6%

Question: What about the viability, T/C (second compound 0.00316 µM, first compound 0.949 µM) of the same compound?
Answer: 26.7%

Question: What about the viability, T/C (second compound 0.00316 µM, first compound 3 µM) of the same compound?
Answer: 17.3%

Question: And the viability, T/C (second compound 0.01 µM, first compound 0.00949 µM)?
Answer: 87.8%

Question: And the viability, T/C (second compound 0.01 µM, first compound 0.03 µM)?
Answer: 65.3%

Question: What about the viability, T/C (second compound 0.01 µM, first compound 0.0949 µM) of the same compound?
Answer: 62.1%

Question: What about the viability, T/C (second compound 0.01 µM, first compound 0.3 µM) of the same compound?
Answer: 34.7%

Question: And the viability, T/C (second compound 0.01 µM, first compound 0.949 µM)?
Answer: 24.9%

Question: And the viability, T/C (second compound 0.01 µM, first compound 3 µM)?
Answer: 11.6%

Question: What about the viability, T/C (second compound 0.0316 µM, first compound 0.00949 µM) of the same compound?
Answer: 71.6%

Question: And the viability, T/C (second compound 0.0316 µM, first compound 0.03 µM)?
Answer: 46.2%

Question: And the viability, T/C (second compound 0.0316 µM, first compound 0.0949 µM)?
Answer: 40.4%

Question: And the viability, T/C (second compound 0.0316 µM, first compound 0.3 µM)?
Answer: 28%

Question: What about the viability, T/C (second compound 0.0316 µM, first compound 0.949 µM) of the same compound?
Answer: 17.4%

Question: What about the viability, T/C (second compound 0.0316 µM, first compound 3 µM) of the same compound?
Answer: 6.46%

Question: What about the viability, T/C (second compound 0.1 µM, first compound 0.00949 µM) of the same compound?
Answer: 67.8%

Question: What about the viability, T/C (second compound 0.1 µM, first compound 0.03 µM) of the same compound?
Answer: 40.9%

Question: What about the viability, T/C (second compound 0.1 µM, first compound 0.0949 µM) of the same compound?
Answer: 23.8%

Question: What about the viability, T/C (second compound 0.1 µM, first compound 0.3 µM) of the same compound?
Answer: 16.4%

Question: What about the viability, T/C (second compound 0.1 µM, first compound 0.949 µM) of the same compound?
Answer: 8.73%

Question: And the viability, T/C (second compound 0.1 µM, first compound 3 µM)?
Answer: 2.61%

Question: What about the viability, T/C (second compound 0.316 µM, first compound 0.00949 µM) of the same compound?
Answer: 34.6%

Question: What about the viability, T/C (second compound 0.316 µM, first compound 0.03 µM) of the same compound?
Answer: 25.5%

Question: What about the viability, T/C (second compound 0.316 µM, first compound 0.0949 µM) of the same compound?
Answer: 13.7%

Question: And the viability, T/C (second compound 0.316 µM, first compound 0.3 µM)?
Answer: 6.91%

Question: What about the viability, T/C (second compound 0.316 µM, first compound 0.949 µM) of the same compound?
Answer: 3.48%

Question: What about the viability, T/C (second compound 0.316 µM, first compound 3 µM) of the same compound?
Answer: 1.27%

Question: What about the viability, T/C (second compound 1 µM, first compound 0.00949 µM) of the same compound?
Answer: 13.5%

Question: And the viability, T/C (second compound 1 µM, first compound 0.03 µM)?
Answer: 10.8%

Question: And the viability, T/C (second compound 1 µM, first compound 0.0949 µM)?
Answer: 5.1%

Question: And the viability, T/C (second compound 1 µM, first compound 0.3 µM)?
Answer: 3.51%

Question: And the viability, T/C (second compound 1 µM, first compound 0.949 µM)?
Answer: 2.89%

Question: What about the viability, T/C (second compound 1 µM, first compound 3 µM) of the same compound?
Answer: 1%
